Our source for the logP values is ChEMBL document CHEMBL1944551, “An integrated computational workflow for efficient and quantitative modeling of renin inhibitors” (Bioorg Med Chem, 2012).

The logP is a log measure of how a compound divides between an organic and an aqueous phase. A lower logP goes with lower lipophilicity.

A short description of the data set: physchem. Particulars: octanol/buffer.
Molecule `CC(C)(C)OCC(=O)NCCc1ccc(Cl)c(CN(C(=O)[C@H]2CNCC(=O)N2c2ccc(CCCOc3c(F)ccc(F)c3F)cc2)C2CC2)c1` came in with a logP of 6.28.
Molecule `CNC(=O)Cc1ccc(Cl)c(CN(C(=O)[C@H]2CNCC(=O)N2c2ccc(OCCOc3c(Cl)cc(C)cc3Cl)cc2)C2CC2)c1` showed a logP of 5.26.
`CNC(=O)Cc1ccc(Cl)c(CN(C(=O)[C@H]2CNCC(=O)N2c2ccc(OCCOc3c(Cl)cc(C)cc3Cl)nc2)C2CC2)c1`: the logP stood at 4.43.
For `CNC(=O)Cc1ccc(Cl)c(CN(C(=O)[C@H]2CNCC(=O)N2c2ccc(COC(=O)c3ccccc3)cc2)C2CC2)c1`, the lipophilicity (logP) came to 4.15.
The figure for `CNC(=O)Cc1ccc(Cl)c(CN(C(=O)[C@H]2CNCC(=O)N2c2ccc(OCCCOCc3ccccc3)cc2)C2CC2)c1` is 4.53; for `CNC(=O)Cc1ccc(Cl)c(CN(C(=O)[C@H]2CNCC(=O)N2c2ccc(OCCCOCc3ccccc3OC)cc2)C2CC2)c1` it is 4.48.
For `CNC(=O)Cc1ccc(Cl)c(CN(C(=O)[C@H]2CNCC(=O)N2c2cnc(OCCCOCc3ccccc3OC)nc2)C2CC2)c1`, the logP was determined as 2.47.
Take `CNC(=O)Cc1ccc(Cl)c(CN(C(=O)[C@H]2CNCC(=O)N2c2ccc(CCCOc3cccc(Cl)c3)cc2)C2CC2)c1`: the logP stood at 5.33.
In the case of `CNC(=O)Cc1ccc(Cl)c(CN(C(=O)[C@H]2CNCC(=O)N2c2ccc(CCCOc3c(F)ccc(F)c3F)cc2)C2CC2)c1` it was 5.15; in that of `Cc1cc(Cl)c(OCCOc2ccc(N3C(=O)CNC[C@@H]3C(=O)N(C)Cc3ccccc3Cl)cc2)c(Cl)c1`, 5.18; in that of `Cc1cc(Cl)c(OCCOc2ccc(N3C(=O)CNC[C@@H]3C(=O)N(C)Cc3ccccc3Cl)cn2)c(Cl)c1`, 4.35.
`CN(Cc1ccccc1Cl)C(=O)[C@H]1CNCC(=O)N1c1ccc(OCCCOCc2ccccc2)cc1` yielded a lipophilicity (logP) of 4.45.
`COc1ccccc1COCCCOc1ccc(N2C(=O)CNC[C@@H]2C(=O)N(C)Cc2ccccc2Cl)cc1` had a logP of 4.41.
The figure for `COc1ccccc1COCCCOc1ncc(N2C(=O)CNC[C@@H]2C(=O)N(C)Cc2ccccc2Cl)cn1` is 2.4; for `CN(Cc1ccccc1Cl)C(=O)[C@H]1CNCC(=O)N1c1ccc(CCCOc2cccc(Cl)c2)cc1` it is 5.25.
The figure for `CN(Cc1ccccc1Cl)C(=O)[C@H]1CNCC(=O)N1c1ccc(CCCOc2c(F)ccc(F)c2F)cc1` is 5.07; for `Cc1cc(Cl)c(OCCOc2ccc(N3C(=O)CNC[C@@H]3C(=O)NCc3ccccc3Cl)cc2)c(Cl)c1` it is 4.98.
Molecule `Cc1cc(Cl)c(OCCOc2ccc(N3C(=O)CNC[C@@H]3C(=O)NCc3ccccc3Cl)cn2)c(Cl)c1` yielded a logP of 4.15.
Regarding `O=C(OCc1ccc(N2C(=O)CNC[C@@H]2C(=O)NCc2ccccc2Cl)cc1)c1ccccc1`, the logP was determined as 3.88.
`O=C(NCc1ccccc1Cl)[C@H]1CNCC(=O)N1c1ccc(OCCCOCc2ccccc2)cc1` registered a logP of 4.26.
The molecule `COc1ccccc1COCCCOc1ccc(N2C(=O)CNC[C@@H]2C(=O)NCc2ccccc2Cl)cc1` registered a logP of 4.21.
The molecule `O=C(NCc1ccccc1Cl)[C@H]1CNCC(=O)N1c1ccc(CCCOc2cccc(Cl)c2)cc1` gave a logP of 5.05.
The figure for `O=C(NCc1ccccc1Cl)[C@H]1CNCC(=O)N1c1ccc(CCCOc2c(F)ccc(F)c2F)cc1` is 4.88.
In the case of `Cc1cc(Cl)c(OCCOc2ccc(N3C(=O)CNC[C@@H]3C(=O)N(C)Cc3ccccc3)cc2)c(Cl)c1`, the logP was determined as 4.59.
The figure for `Cc1cc(Cl)c(OCCOc2ccc(N3C(=O)CNC[C@@H]3C(=O)N(C)Cc3ccccc3)cn2)c(Cl)c1` is 3.76; for `CN(Cc1ccccc1)C(=O)[C@H]1CNCC(=O)N1c1ccc(COC(=O)c2ccccc2)cc1` it is 3.49.
As to `CNCCc1ccc(Cl)c(CN(C(=O)[C@H]2CNCC(=O)N2c2ccc(OCCCOCc3ccccc3)cc2)C2CC2)c1`, the logP amounted to 5.01.
In the case of `CNCCc1ccc(Cl)c(CN(C(=O)[C@H]2CNCC(=O)N2c2ccc(OCCCOCc3ccccc3OC)cc2)C2CC2)c1` it was 4.97; in that of `CNCCc1ccc(Cl)c(CN(C(=O)[C@H]2CNCC(=O)N2c2cnc(OCCCOCc3ccccc3OC)nc2)C2CC2)c1`, 2.95; in that of `CNCCc1ccc(Cl)c(CN(C(=O)[C@H]2CNCC(=O)N2c2ccc(CCCOc3cccc(Cl)c3)cc2)C2CC2)c1`, 5.81.
In turn, `CNCCc1ccc(Cl)c(CN(C(=O)[C@H]2CNCC(=O)N2c2ccc(CCCOc3c(F)ccc(F)c3F)cc2)C2CC2)c1` came in with a logP of 5.63.
The molecule `CN(Cc1ccccc1)C(=O)[C@H]1CNCC(=O)N1c1ccc(OCCCOCc2ccccc2)cc1` returned a logP of 3.86.
On to `COc1ccccc1COCCCOc1ccc(N2C(=O)CNC[C@@H]2C(=O)N(C)Cc2ccccc2)cc1`, for which the lipophilicity (logP) was 3.82.
Molecule `COc1ccccc1COCCCOc1ncc(N2C(=O)CNC[C@@H]2C(=O)N(C)Cc2ccccc2)cn1` registered a logP of 1.8.
For the molecule `CN(Cc1ccccc1)C(=O)[C@H]1CNCC(=O)N1c1ccc(CCCOc2cccc(Cl)c2)cc1`, the log partition coefficient (logP) was 4.66.
`CN(Cc1ccccc1)C(=O)[C@H]1CNCC(=O)N1c1ccc(CCCOc2c(F)ccc(F)c2F)cc1` registered a lipophilicity (logP) of 4.49.
In the case of `Cc1cc(Cl)c(OCCOc2ccc(N3C(=O)CNC[C@@H]3C(=O)N(Cc3cccc(Cl)c3)C3CC3)cc2)c(Cl)c1` it was 5.87.
As to `Cc1cc(Cl)c(OCCOc2ccc(N3C(=O)CNC[C@@H]3C(=O)N(Cc3cc(CCNC4CC4)ccc3Cl)C3CC3)cc2)c(Cl)c1`, the logP was 6.39.
Regarding `Cc1cc(Cl)c(OCCOc2ccc(N3C(=O)CNC[C@@H]3C(=O)N(Cc3cc(CCNC4CC4)ccc3Cl)C3CC3)cn2)c(Cl)c1`, the logP was 5.56.
For `O=C(OCc1ccc(N2C(=O)CNC[C@@H]2C(=O)N(Cc2cc(CCNC3CC3)ccc2Cl)C2CC2)cc1)c1ccccc1`, the logP was found to be 5.29.
In the case of `O=C([C@H]1CNCC(=O)N1c1ccc(OCCCOCc2ccccc2)cc1)N(Cc1cc(CCNC2CC2)ccc1Cl)C1CC1` it was 5.66.
In the case of `COc1ccccc1COCCCOc1ccc(N2C(=O)CNC[C@@H]2C(=O)N(Cc2cc(CCNC3CC3)ccc2Cl)C2CC2)cc1` it was 5.62; in that of `COc1ccccc1COCCCOc1ncc(N2C(=O)CNC[C@@H]2C(=O)N(Cc2cc(CCNC3CC3)ccc2Cl)C2CC2)cn1`, 3.61.
With `O=C([C@H]1CNCC(=O)N1c1ccc(CCCOc2cccc(Cl)c2)cc1)N(Cc1cc(CCNC2CC2)ccc1Cl)C1CC1`, the log partition coefficient (logP) turned out to be 6.46.
Molecule `O=C([C@H]1CNCC(=O)N1c1ccc(CCCOc2c(F)ccc(F)c2F)cc1)N(Cc1cc(CCNC2CC2)ccc1Cl)C1CC1` yielded a logP of 6.29.
In the case of `Cc1cc(Cl)c(OCCOc2ccc(N3C(=O)CNC[C@@H]3C(=O)N(Cc3cc(CNC4CC4)ccc3Cl)C3CC3)cc2)c(Cl)c1`, the logP was determined as 6.3.
Take `Cc1cc(Cl)c(OCCOc2ccc(N3C(=O)CNC[C@@H]3C(=O)N(Cc3cc(CNC4CC4)ccc3Cl)C3CC3)cn2)c(Cl)c1`: the logP worked out at 5.48.
`O=C(OCc1ccc(N2C(=O)CNC[C@@H]2C(=O)N(Cc2cc(CNC3CC3)ccc2Cl)C2CC2)cc1)c1ccccc1`: the logP turned out to be 5.2.
Take `O=C([C@H]1CNCC(=O)N1c1ccc(OCCCOCc2ccccc2)cc1)N(Cc1cc(CNC2CC2)ccc1Cl)C1CC1`: the logP stood at 5.58.
`COc1ccccc1COCCCOc1ccc(N2C(=O)CNC[C@@H]2C(=O)N(Cc2cc(CNC3CC3)ccc2Cl)C2CC2)cc1` showed a logP of 5.53.
`COc1ccccc1COCCCOc1ncc(N2C(=O)CNC[C@@H]2C(=O)N(Cc2cc(CNC3CC3)ccc2Cl)C2CC2)cn1`: the logP stood at 3.52.
With `O=C([C@H]1CNCC(=O)N1c1ccc(CCCOc2cccc(Cl)c2)cc1)N(Cc1cc(CNC2CC2)ccc1Cl)C1CC1`, the logP was 6.38.
Regarding `O=C([C@H]1CNCC(=O)N1c1ccc(CCCOc2c(F)ccc(F)c2F)cc1)N(Cc1cc(CNC2CC2)ccc1Cl)C1CC1`, the logP stood at 6.2.
In turn, `Cc1cc(Cl)c(OCCOc2ccc(N3C(=O)CNC[C@@H]3C(=O)N(Cc3cc(CCNC(=O)CC(F)(F)F)ccc3Cl)C3CC3)cc2)c(Cl)c1` registered a logP of 6.11.
`Cc1cc(Cl)c(OCCOc2ccc(N3C(=O)CNC[C@@H]3C(=O)N(Cc3cc(CCNC(=O)CC(F)(F)F)ccc3Cl)C3CC3)cn2)c(Cl)c1`: the logP is 5.28.
`O=C(CC(F)(F)F)NCCc1ccc(Cl)c(CN(C(=O)[C@H]2CNCC(=O)N2c2ccc(COC(=O)c3ccccc3)cc2)C2CC2)c1` showed a logP of 5.
The molecule `O=C(CC(F)(F)F)NCCc1ccc(Cl)c(CN(C(=O)[C@H]2CNCC(=O)N2c2ccc(OCCCOCc3ccccc3)cc2)C2CC2)c1` had a logP of 5.38.
For `COc1ccccc1COCCCOc1ccc(N2C(=O)CNC[C@@H]2C(=O)N(Cc2cc(CCNC(=O)CC(F)(F)F)ccc2Cl)C2CC2)cc1`, the logP turned out to be 5.33.
Turning to `COc1ccccc1COCCCOc1ncc(N2C(=O)CNC[C@@H]2C(=O)N(Cc2cc(CCNC(=O)CC(F)(F)F)ccc2Cl)C2CC2)cn1`, the logP amounted to 3.32.
Regarding `O=C(CC(F)(F)F)NCCc1ccc(Cl)c(CN(C(=O)[C@H]2CNCC(=O)N2c2ccc(CCCOc3cccc(Cl)c3)cc2)C2CC2)c1`, the logP came out at 6.18.
The molecule `O=C(CC(F)(F)F)NCCc1ccc(Cl)c(CN(C(=O)[C@H]2CNCC(=O)N2c2ccc(CCCOc3c(F)ccc(F)c3F)cc2)C2CC2)c1` gave a logP of 6.
`Cc1cc(Cl)c(OCCOc2ccc(N3C(=O)CNC[C@@H]3C(=O)N(Cc3cc(CCNC(=O)COC(C)(C)C)ccc3Cl)C3CC3)cc2)c(Cl)c1` registered a logP of 6.38.
Regarding `Cc1cc(Cl)c(OCCOc2ccc(N3C(=O)CNC[C@@H]3C(=O)N(Cc3cc(CCNC(=O)COC(C)(C)C)ccc3Cl)C3CC3)cn2)c(Cl)c1`, the logP was 5.56.
`CC(C)(C)OCC(=O)NCCc1ccc(Cl)c(CN(C(=O)[C@H]2CNCC(=O)N2c2ccc(COC(=O)c3ccccc3)cc2)C2CC2)c1`: the logP was 5.28.
Consider `CC(C)(C)OCC(=O)NCCc1ccc(Cl)c(CN(C(=O)[C@H]2CNCC(=O)N2c2ccc(OCCCOCc3ccccc3)cc2)C2CC2)c1`, for which the logP is 5.66.
In the case of `COc1ccccc1COCCCOc1ccc(N2C(=O)CNC[C@@H]2C(=O)N(Cc2cc(CCNC(=O)COC(C)(C)C)ccc2Cl)C2CC2)cc1` it was 5.61; in that of `COc1ccccc1COCCCOc1ncc(N2C(=O)CNC[C@@H]2C(=O)N(Cc2cc(CCNC(=O)COC(C)(C)C)ccc2Cl)C2CC2)cn1`, 3.6; in that of `CC(C)(C)OCC(=O)NCCc1ccc(Cl)c(CN(C(=O)[C@H]2CNCC(=O)N2c2ccc(CCCOc3cccc(Cl)c3)cc2)C2CC2)c1`, 6.46.
